Results reported in patent US20220306695A1, “COMPSTATIN ANALOGUES AND THEIR MEDICAL USES” (priority 2019, published 2022).
Like-named read-outs stand apart in the source and are kept apart here. Starred links: 1 amine or outer side, 2 acyl side, 3 side chain; linkers in the order of their positions; H or OH if unused. Positions of bridges follow the written chain, without caps; N, C: chain ends. Non-standard residues stand in square brackets, D forms with d. Residues, ends and D or L forms follow the SMILES beside them. Groups on a side chain read outwards from the residue. *: point of attachment. Trp(1-Me) = Cn1cc(C[C@H](N)C(=O)O)c2ccccc21; C18 diacid = O=C(O)CCCCCCCCCCCCCCCCC(=O)*; γGlu = O=C(O)[C@H](CCC(=O)[*:2])N[*:1]; AEEA = NCCOCCOCC(=O)O; Aoc = NCCCCCCCC(=O)O; Sar = CNCC(=O)O

Tests used:
[1] = tested on: classical complement pathway; experiment: In vitro haemolysis assay (inhibition of classical complement pathway); assay type: cell-based, human
Description: Method The in vitro effect of test compounds was assessed by measuring their inhibitory effect of the classical complement pathway in a haemolysis assay. Briefly, test compounds and reference compounds were dissolved in DMSO and diluted in Tris/Casein Assay Buffer (10 mM Tris, 145 mM NaCl, 0.5 mM MgCl2, 0.15 mM CaCl2, and 0.1% W/V Casein, adjusted to pH 7.4) as 9-point serial dilutions in a 96 well plate. Sensitized sheep red blood cells (RBC) coated with rabbit anti-sheep erythrocyte antiserum (Complement Technology, Inc., TX, USA) were washed in Tris/Casein Assay Buffer. 50 μL from each well of diluted compound was added to a 96-well plate containing 50 μL diluted human serum (Complement Technology, Inc., TX, USA) and incubated for 15 minutes at room temperature. The serum dilution factor was optimized for every serum batch to obtain 70-90% of maximal haemolysis using the protocol. Then 50 μL sensitized sheep red blood cells were added to all wells ([…] per well). After 30 minutes of incubation at 37° C. with gentle agitation, the reaction was stopped by addition of 50 μL Tris STOP Buffer per well (10 mM EDTA, 10 mM Tris, 145 mM NaCl adjusted to pH 7.4). The RBCs were then removed by centrifugation and the resulting supernatant measured for hemolysis by absorbance at 405 nm. The response was normalized relative to a positive and negative control (vehicle) to calculate the IC50 from the concentration response curve using the 4-parameter logistic (4PL) nonlinear model for curve fitting.

[2] = Solubility test at 10 mg/mL (visual inspection and light scattering); assay type: physicochemical; settings: for Solubility, Condition 1 Acetate pH 4: 10 mg/mL compound in 100 mM acetate pH 4; for Solubility, Condition 2 Acetate pH 5: 10 mg/mL compound in 100 mM acetate pH 5; for Solubility, Condition 3 Phosphate pH 6: 10 mg/mL compound in 100 mM phosphate pH 6; for Solubility, Condition 4 Phosphate pH 7: 10 mg/mL compound in 100 mM phosphate pH 7; for Solubility, Condition 5 Phosphate pH 7.5: 10 mg/mL compound in 100 mM phosphate pH 7.5
Description: The solubility of compounds was assessed by measuring light scattering over a pH interval from pH 4 to pH 7.5.
Compounds were dissolved in a stock solution of 20 mg/mL in H2O at pH 2.5 or pH 10.
These stock solutions were diluted 1:1 with 200 mM buffered solution to reach a final solution of 10 mg/mL compound in 100 mM buffer. The 5 investigated conditions were (1) acetate pH 4.0, (2) acetate pH 5.0, (3) phosphate pH 6.0, (4) phosphate pH 7 and (5) phosphate pH 7.5.
Visual inspection included manually checking the 96 well plate for wells that are clear or non-clear. In addition to this a picture of the 96 well plate is taken.
Absorbance was measured at four wavelengths: 280 nm, 325 nm, 340 nm and 360 nm in an UV transparent 96 well microplate in a SpectraMax 190 microplate reader (Molecular Devices).
The criteria for this was a combination of visual inspection and light scattering not exceeding 0.1 AU, where values below 0.1 AU are good in visually clear samples. […]

[3] = Table 3, human serum, sensitized sheep red blood cells, read-out: IC50[nM], in vitro analysis of inhibition of hemolysis
[4] = Table 4, valine 3 versus isoleucine 3 pairs, read-out: CP hemolysis IC50

SMILES: CC[C@H](C)[C@@H]1NC(=O)[C@@H](NC(=O)[C@H](Cc2ccccc2)NC(=O)[C@H](CCC(=O)O)NC(=O)[C@H](CO)NC(C)=O)CSSC[C@@H](C(=O)N[C@H](C(=O)N[C@@H](CCC(=O)O)C(=O)NCC(=O)N[C@@H](CCC(=O)O)C(=O)NCCCCCCCC(=O)N[C@@H](CCC(=O)O)C(=O)N[C@@H](CCCCNC(=O)CC[C@H](NC(=O)CNC(=O)CC[C@H](NC(=O)CCCCCCCCCCCCCCCCC(=O)O)C(=O)O)C(=O)O)C(N)=O)[C@@H](C)O)NC(=O)[C@H](CCCNC(=N)N)NC(=O)[C@H](Cc2c[nH]cn2)NC(=O)[C@H](CCC(=O)O)NC(=O)CNC(=O)[C@H](Cc2c[nH]c3ccccc23)NC(=O)[C@H](CC(=O)O)NC(=O)[C@H](CCC(N)=O)NC(=O)[C@H](Cc2cn(C)c3ccccc23)NC1=O [Compound 137] (Ac-SEFCI[Trp(1-Me)]QDWGEHRCTEGE[Aoc]EK([γGlu-Gly-γGlu-C18 diacid])-NH2; disulfide 4-14)
- IC50 [1, 3]: < 100 nM

SMILES: CC[C@H](C)[C@H](NC(C)=O)C(=O)N[C@H]1CSSC[C@@H](C(=O)N(C)CC(N)=O)NC(=O)[C@H](CCCNC(=N)N)NC(=O)[C@H](Cc2c[nH]cn2)NC(=O)[C@H](CCC(=O)O)NC(=O)CNC(=O)[C@H](Cc2c[nH]c3ccccc23)NC(=O)[C@H](CC(=O)O)NC(=O)[C@H](CCC(N)=O)NC(=O)[C@H](Cc2c[nH]c3ccccc23)NC(=O)[C@H]([C@@H](C)CC)NC1=O [Compound 13] (Ac-ICIWQDWGEHRC[Sar]-NH2; disulfide 2-12)
- IC50 [1, 3]: < 100 nM

SMILES: CC[C@H](C)[C@H](NC(C)=O)C(=O)N[C@H]1CSSC[C@@H](C(=O)N[C@H](C(=O)N[C@@H](CCC(=O)O)C(=O)NCC(=O)N[C@@H](CCCCNC(=O)COCCOCCNC(=O)COCCOCCNC(=O)CC[C@H](NC(=O)CCCCCCCCCCCCCCCCC(=O)O)C(=O)O)C(N)=O)[C@@H](C)O)NC(=O)[C@H](CCCNC(=N)N)NC(=O)[C@H](Cc2c[nH]cn2)NC(=O)[C@H](CCC(=O)O)NC(=O)CNC(=O)[C@H](Cc2c[nH]c3ccccc23)NC(=O)[C@H](CC(=O)O)NC(=O)[C@H](CCC(N)=O)NC(=O)[C@H](Cc2c[nH]c3ccccc23)NC(=O)[C@H]([C@@H](C)CC)NC1=O [Compound 96] (Ac-ICIWQDWGEHRCTEGK([AEEA-AEEA-γGlu-C18 diacid])-NH2; disulfide 2-12)
- IC50 [1, 3]: < 1000 nM

SMILES: CC[C@H](C)[C@H](NC(=O)CNC(=O)[C@H](CCCCN)NC(=O)[C@H](CCC(=O)O)NC(C)=O)C(=O)N[C@H]1CSSC[C@@H](C(=O)N[C@H](C(=O)N[C@@H](CCC(=O)O)C(=O)N[C@@H](CCCCN)C(=O)N2CCC[C@H]2C(N)=O)[C@@H](C)O)NC(=O)[C@H](CCCNC(=N)N)NC(=O)[C@H](Cc2c[nH]cn2)NC(=O)[C@H](CCC(=O)O)NC(=O)CNC(=O)[C@H](Cc2c[nH]c3ccccc23)NC(=O)[C@H](CC(=O)O)NC(=O)[C@H](CCC(N)=O)NC(=O)[C@H](Cc2c[nH]c3ccccc23)NC(=O)[C@H]([C@@H](C)CC)NC1=O [Compound 38] (Ac-EKGICIWQDWGEHRCTEKP-NH2; disulfide 5-15)
- IC50 [1, 3]: < 250 nM

SMILES: CC[C@H](C)[C@H](NC(=O)[C@H](C)NC(=O)[C@H](CO)NC(=O)CNC(=O)[C@H](CCC(=O)O)NC(C)=O)C(=O)N[C@H]1CSSC[C@@H](C(=O)N(C)CC(=O)N[C@@H](CCC(=O)O)C(N)=O)NC(=O)[C@H](CCCNC(=N)N)NC(=O)[C@H](Cc2c[nH]cn2)NC(=O)[C@H](CCC(=O)O)NC(=O)CNC(=O)[C@H](Cc2c[nH]c3ccccc23)NC(=O)[C@H](CC(=O)O)NC(=O)[C@H](CCC(N)=O)NC(=O)[C@H](Cc2c[nH]c3ccccc23)NC(=O)[C@H](C(C)C)NC1=O [H, reference compound] (Ac-EGSAICVWQDWGEHRC[Sar]E-NH2; disulfide 6-16)
- IC50 [1, 4]: 330 nM

SMILES: CC[C@H](C)[C@H](NC(C)=O)C(=O)N[C@H]1CSSC[C@@H](C(=O)N[C@@H](CCC(=O)O)C(N)=O)NC(=O)[C@H](CCCNC(=N)N)NC(=O)[C@H](Cc2c[nH]cn2)NC(=O)[C@H](C)NC(=O)CNC(=O)[C@H](Cc2c[nH]c3ccccc23)NC(=O)[C@H](CC(=O)O)NC(=O)[C@H](CCC(N)=O)NC(=O)[C@H](Cc2c[nH]c3ccccc23)NC(=O)[C@H]([C@@H](C)CC)NC1=O [Compound 12] (Ac-ICIWQDWGAHRCE-NH2; disulfide 2-12)
- IC50 [1, 3]: < 100 nM

SMILES: CC[C@H](C)[C@H](NC(C)=O)C(=O)N[C@H]1CSSC[C@@H](C(=O)N[C@H](C(N)=O)[C@@H](C)O)NC(=O)[C@H](CCCNC(=N)N)NC(=O)[C@H](Cc2c[nH]cn2)NC(=O)[C@H](CO)NC(=O)CNC(=O)[C@H](Cc2c[nH]c3ccccc23)NC(=O)[C@H](CC(=O)O)NC(=O)[C@H](CCC(N)=O)NC(=O)[C@H](Cc2c[nH]c3ccccc23)NC(=O)[C@H](C(C)C)NC1=O [B, reference compound] (Ac-ICVWQDWGSHRCT-NH2; disulfide 2-12)
- IC50 [1, 4]: 360 nM

SMILES: CC[C@H](C)[C@@H]1NC(=O)[C@@H](NC(=O)[C@H](Cc2ccc(O)cc2)NC(=O)[C@H](C)NC(=O)[C@H](CO)NC(C)=O)CSSC[C@@H](C(=O)N(C)CC(=O)N[C@@H](CCC(=O)O)C(=O)N[C@@H](CCCCNC(=O)CC[C@H](NC(=O)CNC(=O)[C@H](CCCCN)NC(=O)CC[C@H](NC(=O)CCCCCCCCCCCCCCCCC(=O)O)C(=O)O)C(=O)O)C(N)=O)NC(=O)[C@H](CCCNC(=N)N)NC(=O)[C@H](Cc2c[nH]cn2)NC(=O)[C@H](CCC(=O)O)NC(=O)CNC(=O)[C@H](Cc2c[nH]c3ccccc23)NC(=O)[C@H](CC(=O)O)NC(=O)[C@H](CCC(N)=O)NC(=O)[C@H](Cc2cn(C)c3ccccc23)NC1=O [Compound 105] (Ac-SAYCI[Trp(1-Me)]QDWGEHRC[Sar]EK([γGlu-Gly-Lys-γGlu-C18 diacid])-NH2; disulfide 4-14)
- Solubility, Condition 1 Acetate pH 4 [2]: − (denotes lack of solubility at the given condition, as UV absorbance at 340 nm exceeds 0.1 AU and/or it is visibly turbid or contains particles.)
- Solubility, Condition 2 Acetate pH 5 [2]: − (denotes lack of solubility at the given condition, as UV absorbance at 340 nm exceeds 0.1 AU and/or it is visibly turbid or contains particles.)
- Solubility, Condition 3 Phosphate pH 6 [2]: + (denotes solubility at the given condition, as determined by UV absorbance being less than 0.1 AU at 340 nm and the sample being clear when manually inspected.)
- Solubility, Condition 4 Phosphate pH 7 [2]: + (denotes solubility at the given condition, as determined by UV absorbance being less than 0.1 AU at 340 nm and the sample being clear when manually inspected.)
- Solubility, Condition 5 Phosphate pH 7.5 [2]: + (denotes solubility at the given condition, as determined by UV absorbance being less than 0.1 AU at 340 nm and the sample being clear when manually inspected.)

SMILES: CC[C@H](C)[C@@H]1NC(=O)[C@@H](NC(=O)[C@H](Cc2ccc(O)cc2)NC(=O)[C@H](CCC(=O)O)NC(=O)[C@H](CO)NC(C)=O)CSSC[C@@H](C(=O)N(C)CC(=O)N[C@@H](CCC(=O)O)C(=O)NCC(=O)N[C@@H](CCC(=O)O)C(=O)N[C@@H](CCCCNC(=O)CC[C@H](NC(=O)[C@H](CCCCN)NC(=O)CC[C@H](NC(=O)CCCCCCCCCCCCCCCCC(=O)O)C(=O)O)C(=O)O)C(N)=O)NC(=O)[C@H](CCCNC(=N)N)NC(=O)[C@H](Cc2c[nH]cn2)NC(=O)[C@H](CCC(=O)O)NC(=O)CNC(=O)[C@H](Cc2c[nH]c3ccccc23)NC(=O)[C@H](CC(=O)O)NC(=O)[C@H](CCC(N)=O)NC(=O)[C@H](Cc2cn(C)c3ccccc23)NC1=O [Compound 116] (Ac-SEYCI[Trp(1-Me)]QDWGEHRC[Sar]EGEK([γGlu-Lys-γGlu-C18 diacid])-NH2; disulfide 4-14)
- Solubility, Condition 1 Acetate pH 4 [2]: − (denotes lack of solubility at the given condition, as UV absorbance at 340 nm exceeds 0.1 AU and/or it is visibly turbid or contains particles.)
- Solubility, Condition 2 Acetate pH 5 [2]: − (denotes lack of solubility at the given condition, as UV absorbance at 340 nm exceeds 0.1 AU and/or it is visibly turbid or contains particles.)
- Solubility, Condition 3 Phosphate pH 6 [2]: + (denotes solubility at the given condition, as determined by UV absorbance being less than 0.1 AU at 340 nm and the sample being clear when manually inspected.)
- Solubility, Condition 4 Phosphate pH 7 [2]: + (denotes solubility at the given condition, as determined by UV absorbance being less than 0.1 AU at 340 nm and the sample being clear when manually inspected.)
- Solubility, Condition 5 Phosphate pH 7.5 [2]: + (denotes solubility at the given condition, as determined by UV absorbance being less than 0.1 AU at 340 nm and the sample being clear when manually inspected.)
